Like-named read-outs stand apart in the source and are kept apart here.
Key:
[1] = molecular target: Cy5-labelled Mcl1 (amino acids 171-321) C286S protein (UniProtKB Q07820) (Homo sapiens (Human), UniProt Q07820, C286S); test: Inhibition of Mcl-1 by the fluorescence quenching assay (Example A, Method B); type: binding
Procedure, shortened: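 Eleven-point compound series incubated 2 h at room temperature with 1 nM Cy5-tagged protein and quencher-labelled PUMA peptide at 10, 20 or 400 nM in HEPES/NaCl/Tween 20, pH 7.4, 5% DMSO. IC50 for 50% fluorescence increase by 4-parameter fit, then Ki derived (complete cKi or estimated eKi).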

[2] = tested on: H929 multiple myeloma tumor line; test: In vitro cytotoxicity, MTT assay (Example B, Method A); type: cell-based; conditions: H929 cells, 48 hours exposure, read-out: C50
Method: The cytotoxicity studies were carried out on the H929 multiple myeloma tumor line.
The cells are distributed onto microplates and exposed to the test compounds for 48 hours. The cell viability is then quantified by a colorimetric assay, the Microculture Tetrazolium Assay (Carmichael et al, Cancer Res. 1987, 47, 939-942).
The results are expressed in C50 which means concentration corresponding to […] of effect/inhibition.

Cy5-labelled Mcl1 (amino acids 171-321) C286S protein, sequence (Q07820 171-321 C286S): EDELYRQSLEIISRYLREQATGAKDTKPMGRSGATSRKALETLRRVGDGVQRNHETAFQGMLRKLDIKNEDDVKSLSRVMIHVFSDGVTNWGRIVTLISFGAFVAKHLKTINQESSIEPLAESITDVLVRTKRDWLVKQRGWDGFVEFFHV

SMILES	Ki [1] [µM]	inhibition at 10 µM ([1]; @ 10 μM, read-out: Mcl-1 inhibition, % at a single concentration) [%]	IC50 ([2]; Homo sapiens, NCI-H929, 48 h) [µM]	IC50 [2] [µM]
C[C@@H](COc1ccnc2c1[C@H](C)CCC2)C[C@@H]1Cc2ccccc2[C@]12CC[C@@](Nc1ccc(F)c(Cl)c1)(C(=O)O)CC2 [Example 703, (1r,2′R,4R)-4-(3-chloro-4-fluoroanilino)-2′-[(2R)-2-methyl-3-{[(5R)-5-methyl-5,6,7,8-tetrahydroquinolin-4-yl]oxy}propyl]-2′,3′-dihydrospiro[cyclohexane-1,1′-indene]-4-carboxylic acid]	0.00127	–	0.169	–
C[C@@H](COc1ccnc2c1[C@H](C)CCC2)C[C@H]1Cc2ccc(F)cc2[C@]12CC[C@@](Nc1cccc(Cl)c1)(C(=O)O)CC2 [Example 765, (1r,2′S,4S)-4-(3-chloroanilino)-6′-fluoro-2′-[(2R)-2-methyl-3-{[(5R)-5-methyl-5,6,7,8-tetrahydroquinolin-4-yl]oxy}propyl]-2′,3′-dihydrospiro[cyclohexane-1,1′-indene]-4-carboxylic acid]	0.000661	–	0.21	–
C[C@@H](COc1ccnc2ccsc12)C[C@H]1Cc2cc(F)ccc2[C@]12CC[C@@](Nc1cccc(Cl)c1)(C(=O)O)CC2 [Example 737, (1r,2′S,4S)-4-(3-chloroanilino)-5′-fluoro-2′-{(2R)-2-methyl-3-[(thieno[3,2-b]pyridin-7-yl)oxy]propyl}-2′,3′-dihydrospiro[cyclohexane-1,1′-indene]-4-carboxylic acid]	0.000932	–	0.191	–
C[C@@H](COc1ccnc2c1[C@@H](C)CCC2)C[C@H]1Cc2ccccc2[C@]12CC[C@@](Cc1cccc(Cl)c1)(C(=O)O)CC2 [Example 719, (1s,2′S,4R)-4-[(3-chlorophenyl)methyl]-2′-[(2R)-2-methyl-3-{[(5S)-5-methyl-5,6,7,8-tetrahydroquinolin-4-yl]oxy}propyl]-2′,3′-dihydrospiro[cyclohexane-1,1′-indene]-4-carboxylic acid]	1.45	–	13.2	–
C[C@@H](COc1ccnc2c1CCCC2C(F)F)C[C@H]1Cc2ccccc2[C@]12CC[C@@](Nc1cccc(Cl)c1)(C(=O)O)CC2 (single isomer, unassigned) [Example 682]	0.0466	–	5.18	–
CC(CC1Cc2ccccc2[C@]12CC[C@@](Nc1cccc(Cl)c1)(C(=O)O)CC2)C1CCC(=O)CC1 (single isomer, unassigned) [Example 573, (1r,4r)-4-(3-chloroanilino)-2′-[2-(4-oxocyclohexyl)propyl]-2′,3′-dihydrospiro[cyclohexane-1,1′-indene]-4-carboxylic acid]	0.806	–	–	30
O=C(O)[C@]1(Nc2cccc(Cl)c2)CC[C@@]2(CC1)c1ccccc1CC2CC(COc1ccnc2ccsc12)Cc1ccccc1 (single isomer, unassigned) [Example 562, (1r,4r)-2′-{2-benzyl-3-[(thieno[3,2-b]pyridin-7-yl)oxy]propyl}-4-(3-chloroanilino)-2′,3′-dihydrospiro[cyclohexane-1,1′-indene]-4-carboxylic acid]	0.0809	–	–	17.8
C[C@@H](COc1ccnc2c1[C@H](C)CCC2)C[C@H]1Cc2ccccc2[C@]12CC[C@@](Sc1cccc(Cl)c1)(C(=O)O)CC2 [Example 718, (1r,2′S,4S)-4-[(3-chlorophenyl)sulfanyl]-2′-[(2R)-2-methyl-3-{[(5R)-5-methyl-5,6,7,8-tetrahydroquinolin-4-yl]oxy}propyl]-2′,3′-dihydrospiro[cyclohexane-1,1′-indene]-4-carboxylic acid]	–	14.8	15.9	–
C[C@@H](COc1ccnc2c1CCC/C2=C\F)C[C@H]1Cc2ccccc2[C@]12CC[C@@](Nc1cccc(Cl)c1)(C(=O)O)CC2 [Example 684, (1r,2′S,4S)-4-(3-chloroanilino)-2′-[(2R)-3-{[(8E)-8-(fluoromethylidene)-5,6,7,8-tetrahydroquinolin-4-yl]oxy}-2-methylpropyl]-2′,3′-dihydrospiro[cyclohexane-1,1′-indene]-4-carboxylic acid]	0.0455	–	5.85	–
C[C@@H](COc1ccnc2c1CCC2)C[C@@H]1Cc2ccccc2[C@]12CC[C@@](Nc1cccc(Cl)c1)(C(=O)O)CC2 [Example 598, (1r,2′R,4R)-4-(3-chloroanilino)-2′-{(2R)-3-[(6,7-dihydro-5H-cyclopenta[b]pyridin-4-yl)oxy]-2-methylpropyl}-2′,3′-dihydrospiro[cyclohexane-1,1′-indene]-4-carboxylic acid]	0.00429	–	0.59	–

Continued by falling Ki [1], values first:

Ki [1] [µM]	inhibition at 10 µM ([1]; @ 10 μM, read-out: Mcl-1 inhibition, % at a single concentration) [%]	SMILES	IC50 ([2]; Homo sapiens, NCI-H929, 48 h) [µM]	IC50 [2] [µM]
0.000382	–	CC(O)c1ccc2c(c1)[C@]1(CC[C@@](Nc3cccc(Cl)c3)(C(=O)O)CC1)[C@@H](C[C@@H](C)COc1ccnc3c1[C@H](C)CC[C@H]3F)C2 (single isomer, unassigned) [Example 863]	–	0.0767
0.000349	–	CC(O)c1ccc2c(c1)[C@]1(CC[C@@](Nc3cccc(Cl)c3)(C(=O)O)CC1)[C@@H](C[C@@H](C)COc1ccnc3ccsc13)C2 (stereo partly drawn) [Example 722, (1r,2′S,4S)-4-(3-chloroanilino)-6′-(1-hydroxyethyl)-2′-{(2R)-2-methyl-3-[(thieno[3,2-b]pyridin-7-yl)oxy]propyl}-2′,3′-dihydrospiro[cyclohexane-1,1′-indene]-4-carboxylic acid]	0.244	–
0.000342	–	C[C@@H](COc1ccnc2c1[C@H](C)CCC2)CC1=Cc2c(F)c(F)ccc2[C@]12CC[C@@](Nc1cccc(Cl)c1)(C(=O)O)CC2 [Example 744, (1r,4R)-4-(3-chloroanilino)-4′,5′-difluoro-2′-[(2R)-2-methyl-3-{[(5R)-5-methyl-5,6,7,8-tetrahydroquinolin-4-yl]oxy}propyl]spiro[cyclohexane-1,1′-indene]-4-carboxylic acid]	0.0652	–
0.000305	–	C[C@@H](COc1ccnc2c1[C@H](C)CCC2)CC1=Cc2cc(F)ccc2[C@]12CC[C@@](Nc1cccc(Cl)c1)(C(=O)O)CC2 [Example 767, (1r,4R)-4-(3-chloroanilino)-5′-fluoro-2′-[(2R)-2-methyl-3-{[(5R)-5-methyl-5,6,7,8-tetrahydroquinolin-4-yl]oxy}propyl]spiro[cyclohexane-1,1′-indene]-4-carboxylic acid]	0.0788	–
0.00019	–	C[C@@H](COc1ccnc2c1[C@H](C)CCC2)CC1=Cc2ccc(CO)cc2[C@]12CC[C@@](Nc1cccc(Cl)c1)(C(=O)O)CC2 [Example 868, (1r,4R)-4-(3-chloroanilino)-6′-(hydroxymethyl)-2′-[(2R)-2-methyl-3-{[(5R)-5-methyl-5,6,7,8-tetrahydroquinolin-4-yl]oxy}propyl]spiro[cyclohexane-1,1′-indene]-4-carboxylic acid]	0.231	–
0.000176	–	C[C@@H](COc1ccnc2c1[C@H](C)CC[C@H]2O)C[C@H]1Cc2cc(F)ccc2[C@]12CC[C@@](Nc1cccc(Cl)c1)(C(=O)O)CC2 [Example 771, (1r,2′S,4S)-4-(3-chloroanilino)-5′-fluoro-2′-[(2R)-3-{[(5R,8R)-8-hydroxy-5-methyl-5,6,7,8-tetrahydroquinolin-4-yl]oxy}-2-methylpropyl]-2′,3′-dihydrospiro[cyclohexane-1,1′-indene]-4-carboxylic acid]	0.0183	–

Reference: patent US20240150293A1, “SPIROCYCLOHEXANE DERIVATIVES, PHARMACEUTICAL COMPOSITIONS CONTAINING THEM AND THEIR USES AS ANTI-APOPTOTIC INHIBITORS” (LES LABORATOIRES SERVIER, priority 2021, published 2024)
